Values after ≈ are worked out from the molar mass of the structure shown. “Also recorded” adds a separate entry of the source. Like-named read-outs stand apart in the source and are kept apart here.
Legend:
[1] = tested on: PfENT1-expressing fui1Δ yeast; test: 5-FUrd inhibition of PfENT1-expressing fui1Δ yeast growth; format: cell-based; conditions: Saccharomyces cerevisiae, read-out: IC50 for inhibition of yeast growth
PfENT1 [2] = target: T1, PfENT1 (Plasmodium falciparum, UniProt Q8IDM6); test: Yeast Kill Assay; format: cell-based
T1 sequence (Q8IDM6 1-422): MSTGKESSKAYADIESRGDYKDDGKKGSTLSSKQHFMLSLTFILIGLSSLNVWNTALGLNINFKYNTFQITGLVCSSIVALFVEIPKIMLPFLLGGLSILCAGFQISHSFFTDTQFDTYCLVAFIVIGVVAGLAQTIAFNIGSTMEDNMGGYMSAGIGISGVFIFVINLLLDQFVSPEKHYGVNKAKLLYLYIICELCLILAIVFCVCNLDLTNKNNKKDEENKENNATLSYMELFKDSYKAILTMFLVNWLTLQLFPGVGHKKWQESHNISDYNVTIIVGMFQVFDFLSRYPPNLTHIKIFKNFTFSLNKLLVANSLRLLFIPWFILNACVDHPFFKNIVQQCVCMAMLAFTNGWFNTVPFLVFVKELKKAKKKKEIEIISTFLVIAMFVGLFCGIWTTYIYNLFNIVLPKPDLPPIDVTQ

PfENT1 [3] = target: T1, PfENT1; test: Yeast Kill Assay; format: cell-based; remark: listed apart in the source
PfENT1 [4] = target: T1, PfENT1; test: [3H]adenosine uptake into PfENT1-expressing yeast; format: cell-based
PvENT1 = PvENT1 (Plasmodium vivax, UniProt A5K8B0); test: [3H]adenosine uptake into PvENT1-expressing yeast; format: cell-based
PbENT1 = PbENT1 (Plasmodium berghei, UniProt A0A509AYF4); test: [3H]adenosine uptake into PbENT1-expressing yeast; format: cell-based
[5] = tested on: 3D7 strain P. falciparum parasites; test: P. falciparum parasite proliferation, 3D7 strain; format: cell-based; conditions: Plasmodium falciparum, 3D7, 48 h, read-out: 3D7 parasite proliferation IC50
[6] = tested on: PfENT1-KO (pfent1Δ) parasites in the Dd2 background; test: P. falciparum parasite proliferation, PfENT1-knockout; format: cell-based, Plasmodium falciparum; conditions: for IC50: Plasmodium falciparum, DD2, read-out: PfENT1-KO parasite proliferation IC50
[7] = tested on: Dd2 strain P. falciparum parasites; test: P. falciparum parasite proliferation, Dd2 strain; format: cell-based, Plasmodium falciparum
[8] = tested on: HB3 strain P. falciparum parasites; test: P. falciparum parasite proliferation, HB3 strain; format: cell-based; conditions: Plasmodium falciparum, HB3, read-out: HB3 parasite proliferation IC50
[9] = tested on: 7G8 strain P. falciparum parasites; test: P. falciparum parasite proliferation, 7G8 strain; format: cell-based; conditions: Plasmodium falciparum, 7G8, read-out: 7G8 parasite proliferation IC50
hENT1 = target: T2, hENT1 (Homo sapiens, UniProt Q99808); test: [3H]adenosine uptake into human RBC; format: cell-based; conditions: for hENT1 [3H]adenosine uptake into RBC IC50: mean ± SD, NE = no effect at 100 μM
T2 sequence (Q99808 1-456): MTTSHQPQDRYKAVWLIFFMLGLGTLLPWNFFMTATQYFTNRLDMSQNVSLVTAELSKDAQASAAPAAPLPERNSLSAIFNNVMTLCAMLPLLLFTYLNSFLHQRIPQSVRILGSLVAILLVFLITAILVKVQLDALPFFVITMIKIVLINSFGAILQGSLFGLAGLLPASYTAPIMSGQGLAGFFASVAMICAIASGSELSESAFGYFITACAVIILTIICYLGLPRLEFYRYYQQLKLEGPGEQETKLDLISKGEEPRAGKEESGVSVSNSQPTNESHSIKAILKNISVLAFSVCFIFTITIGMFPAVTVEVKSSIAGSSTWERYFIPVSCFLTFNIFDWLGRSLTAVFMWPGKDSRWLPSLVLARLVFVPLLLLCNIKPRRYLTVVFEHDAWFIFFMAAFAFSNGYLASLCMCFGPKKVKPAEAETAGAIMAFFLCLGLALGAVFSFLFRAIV

in vitro = format: cell-based; conditions: human
Kinetic solubility = format: physicochemical; conditions: phosphate buffered saline, pH 7.4, aqueous buffer, kinetic from dmso stock
Property Forecast Index = format: physicochemical; conditions: chromatographic log D7.4 + aromatic ring count
human serum albumin = human serum albumin (Homo sapiens, UniProt P02768); test: HSA column binding; format: in vitro ADME
PfENT1 [10] = target: T1, PfENT1; test: Yeast HTS Growth Assay
hFNT = target: T3, hFNT (Homo sapiens, UniProt Q8NBI5); test: [3H]hypoxanthine uptake into human RBC; format: cell-based; conditions: mean ± SD; 15 minutes; NE = no effect at 100 μM
T3 sequence (Q8NBI5 1-491): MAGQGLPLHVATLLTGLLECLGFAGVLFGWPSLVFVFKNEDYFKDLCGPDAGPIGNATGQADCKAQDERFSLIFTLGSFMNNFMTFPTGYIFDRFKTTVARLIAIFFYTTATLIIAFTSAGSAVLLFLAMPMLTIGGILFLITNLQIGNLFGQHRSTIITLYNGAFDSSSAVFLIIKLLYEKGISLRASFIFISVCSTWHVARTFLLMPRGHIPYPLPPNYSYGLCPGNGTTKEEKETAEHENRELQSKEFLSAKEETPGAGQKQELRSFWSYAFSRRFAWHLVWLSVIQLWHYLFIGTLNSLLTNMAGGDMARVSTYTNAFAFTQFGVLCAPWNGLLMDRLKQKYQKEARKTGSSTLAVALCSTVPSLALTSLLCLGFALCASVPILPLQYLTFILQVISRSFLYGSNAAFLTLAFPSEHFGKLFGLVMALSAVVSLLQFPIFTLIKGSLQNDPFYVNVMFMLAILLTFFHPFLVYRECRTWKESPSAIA

[11] = Plasmodium falciparum, DD2, read-out: Dd2 parasite proliferation IC50, mean ± SD

Sequence of human serum albumin (P02768 25-609): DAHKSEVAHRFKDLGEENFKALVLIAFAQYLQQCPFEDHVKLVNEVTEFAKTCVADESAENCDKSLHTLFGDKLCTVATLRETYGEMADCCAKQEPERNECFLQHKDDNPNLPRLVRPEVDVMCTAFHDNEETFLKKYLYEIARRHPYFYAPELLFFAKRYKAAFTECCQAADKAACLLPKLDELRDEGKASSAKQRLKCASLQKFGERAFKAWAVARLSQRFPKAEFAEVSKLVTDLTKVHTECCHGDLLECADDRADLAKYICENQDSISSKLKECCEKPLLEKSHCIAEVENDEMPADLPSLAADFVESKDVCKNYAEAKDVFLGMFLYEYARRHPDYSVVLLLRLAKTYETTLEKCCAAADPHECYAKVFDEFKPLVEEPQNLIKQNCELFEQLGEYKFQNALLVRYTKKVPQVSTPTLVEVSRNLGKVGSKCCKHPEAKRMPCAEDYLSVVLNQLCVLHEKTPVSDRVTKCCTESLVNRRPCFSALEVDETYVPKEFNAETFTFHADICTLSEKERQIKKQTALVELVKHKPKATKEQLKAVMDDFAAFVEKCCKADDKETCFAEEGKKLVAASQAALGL
Sequence of PvENT1 (A5K8B0 whole entry): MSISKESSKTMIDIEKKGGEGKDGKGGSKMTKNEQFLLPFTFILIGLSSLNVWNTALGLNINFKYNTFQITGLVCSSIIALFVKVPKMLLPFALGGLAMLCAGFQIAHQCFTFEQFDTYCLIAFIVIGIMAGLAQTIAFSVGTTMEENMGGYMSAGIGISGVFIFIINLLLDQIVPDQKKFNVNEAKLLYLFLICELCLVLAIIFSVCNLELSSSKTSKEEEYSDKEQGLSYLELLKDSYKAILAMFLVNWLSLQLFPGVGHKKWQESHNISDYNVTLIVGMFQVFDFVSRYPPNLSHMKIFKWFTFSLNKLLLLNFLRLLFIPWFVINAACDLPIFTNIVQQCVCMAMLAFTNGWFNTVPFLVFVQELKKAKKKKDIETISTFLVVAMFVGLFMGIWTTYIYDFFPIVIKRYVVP
Sequence of PbENT1 (A0A509AYF4 whole entry): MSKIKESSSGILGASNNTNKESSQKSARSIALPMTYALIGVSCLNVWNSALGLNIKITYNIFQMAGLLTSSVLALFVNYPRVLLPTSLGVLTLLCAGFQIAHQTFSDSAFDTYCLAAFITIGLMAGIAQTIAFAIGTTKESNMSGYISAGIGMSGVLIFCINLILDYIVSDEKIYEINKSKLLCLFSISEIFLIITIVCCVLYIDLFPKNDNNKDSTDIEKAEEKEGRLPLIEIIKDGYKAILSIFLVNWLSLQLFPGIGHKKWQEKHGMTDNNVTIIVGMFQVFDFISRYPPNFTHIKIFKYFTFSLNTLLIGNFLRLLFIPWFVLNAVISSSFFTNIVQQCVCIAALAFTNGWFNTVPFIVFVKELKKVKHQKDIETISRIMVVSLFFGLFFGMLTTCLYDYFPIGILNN

Row | Structure (SMILES) | IC50 (PfENT1 [2]) [nM] | IC50 (PfENT1 [3]) [nM] | IC50 (PfENT1 [4]) [nM] | IC50 (PvENT1) [nM] | IC50 (PbENT1) [nM] | IC50 [5] [nM] | IC50 [6] [nM] | IC50 [7, 11] [nM] | IC50 [8] [nM] | IC50 [9] [nM] | IC50 (hENT1) [nM] | IC50 at 48 h (in vitro) [nM] | solubility at 1 h (Kinetic solubility) [µg/mL] | PFI (Property Forecast Index) | HSA Column binding (human serum albumin) [%] | EC50 (PfENT1 [10]) [nM] | hFNT [3H]hypoxanthine uptake into RBC IC50 (hFNT) | further results
1 | O=c1[nH]c(=O)n([C@@H]2O[C@H](CO)[C@@H](O)[C@H]2O)cc1F [5-FUrd, 5-fluorouridine] | – | – | – | – | – | – | – | – | – | – | – | – | – | – | – | – | – | IC50 [1]: 4800 nM
2 | COc1ccc(-c2nc(C(=O)Nc3cccc(-c4nnc5n4CCCCC5)c3)cs2)cc1OC [GSK-1, 2-(3,4-Dimethoxyphenyl)-N-[3-(6,7,8,9-tetrahydro-5H-[1,2,4]triazolo[4,3-a]azepin-3-yl)phenyl]-1,3-thiazole-4-carboxamide] | 630 | 540 ± 200 | 120 ± 80 | 140 ± 70 | 130 ± 50 | 780 ± 200 | 17000 ± 4800 | 110 ± 9 | 340 ± 100 | 480 ± 200 | 990 ± 810 | > 100000 | 10.5 (≈ 22.1 µM) | 8.8 | 94 | 3160 | – | –
3 | CCc1nnc(NC(=O)c2nc(-c3ccc(Cl)cc3)n3c2CCCCC3)s1 [GSK-2, 3-(4-Chlorophenyl)-N-(5-ethyl-1,3,4-thiadiazol-2-yl)-6,7,8,9-tetrahydro-5H-imidazo[1,5-a]azepine-1-carboxamide] | < 80 | 110 ± 40 | 30 ± 30 | 40 ± 30 | 50 ± 30 | 2250 ± 400 | 2660 | 1890 ± 200 | 3550 ± 700 | 4520 ± 100 | 24500 ± 24800 | > 100000 | 2.5 (≈ 6.22 µM) | 9.6 | 97 | 250 | did not inhibit | –
4 | O=C(Nc1ccccc1C(=O)NC1CC1)c1cccc(N2CCCC2=O)c1 [GSK-3, N-Cyclopropyl-2-{[3-(2-oxo-1-pyrrolidinyl)benzoyl]amino}benzamide] | 630 | 460 ± 300 | 30 ± 10 | 40 ± 10 | 70 ± 40 | 2380 ± 500 | – | 590 ± 50 | 2210 ± 600 | 6080 ± 1300 | 72400 ± 19300 | > 100000 | 112 (≈ 308 µM) | 6 | 84 | 2510 | – | PfENT1-KO parasite proliferation IC50 ([6]; 75 μM hypoxanthine, NE = no effect at 74.2 μM, N=1 for GSK-2 and GSK-5): Low activity/NE^e
5 | Cc1oc(-c2ccccc2)nc1C(=O)NCCN1CCCCCC1=O [GSK-4, 5-Methyl-N-[2-(2-oxo-1-azepanyl)ethyl]-2-phenyl-1,3-oxazole-4-carboxamide] | 1260 | 430 ± 300 | 20 ± 10 | 20 ± 40 | 10 ± 10 | 6200 ± 1900 | 29400 ± 500 | 1900 ± 400 | 6160 ± 2500 | 8440 ± 2400 | 51000 ± 27700 | > 100000 | 156 (≈ 457 µM) | 6.5 | 92 | 3980 | did not inhibit | –
6 | CC(=O)Nc1nc(-c2c(F)cccc2F)cs1 [GSK-5, N-[4-(2,6-Difluorophenyl)-1,3-thiazol-2-yl]acetamide] | 6310 | 4000 ± 1300 | 2590 ± 2360 | 2710 ± 250 | 3090 ± 2700 | 8720 ± 1600 | 10800 | 10600 ± 2100 | 9090 ± 4500 | 16100 ± 5500 | – | > 100000 | 16 (≈ 62.9 µM) | 5.7 | 90 | 63100 | – | hENT1 [3H]adenosine uptake into RBC IC50 (hENT1): did not inhibit; also recorded: Low activity/NE^d
7 | CCn1cnnc1C1CCN(C(=O)c2cn3ccc(C)cc3n2)CC1 [GSK-6, [4-(4-Ethyl-4H-1,2,4-triazol-3-yl)-1-piperidinyl](7-methylimidazo[1,2-a]pyridin-2-yl)methanone] | 1260 | 1200 ± 1100 | 3980 ± 1350 | – | – | 10300 ± 4700 | > 100000 | 1890 | 19700 ± 4100 | 19000 ± 3500 | – | > 100000 | > 133 | 4.2 | 48 | 10000 | did not inhibit | PvENT1 [3H]Ado uptake IC50 (PvENT1; mean ± SD, yeast expressing P. vivax ENT1, NE = no effect at 100 μM): did not inhibit; PbENT1 [3H]Ado uptake IC50 (PbENT1; mean ± SD, yeast expressing P. berghei ENT1, NE = no effect at 100 μM): did not inhibit; IC50 ([7]; read-out: Dd2 parasite proliferation IC50, mean ± SD): 3300 ± 1700 nM; hENT1 [3H]adenosine uptake into RBC IC50 (hENT1): did not inhibit

From publication PMC7171677 (ACS infectious diseases, 2019)
